{
  "source": "patent US7179597B2",
  "about": "“Genetic diagnosis for QT prolongation related adverse drug reactions” (Georgetown University, priority 2000, dated 2007)",
  "key": {"IKr": {"target": "T1, IKr (Oryctolagus cuniculus, UniProt Q8WNY2)", "T1 sequence (Q8WNY2 1-1161)": "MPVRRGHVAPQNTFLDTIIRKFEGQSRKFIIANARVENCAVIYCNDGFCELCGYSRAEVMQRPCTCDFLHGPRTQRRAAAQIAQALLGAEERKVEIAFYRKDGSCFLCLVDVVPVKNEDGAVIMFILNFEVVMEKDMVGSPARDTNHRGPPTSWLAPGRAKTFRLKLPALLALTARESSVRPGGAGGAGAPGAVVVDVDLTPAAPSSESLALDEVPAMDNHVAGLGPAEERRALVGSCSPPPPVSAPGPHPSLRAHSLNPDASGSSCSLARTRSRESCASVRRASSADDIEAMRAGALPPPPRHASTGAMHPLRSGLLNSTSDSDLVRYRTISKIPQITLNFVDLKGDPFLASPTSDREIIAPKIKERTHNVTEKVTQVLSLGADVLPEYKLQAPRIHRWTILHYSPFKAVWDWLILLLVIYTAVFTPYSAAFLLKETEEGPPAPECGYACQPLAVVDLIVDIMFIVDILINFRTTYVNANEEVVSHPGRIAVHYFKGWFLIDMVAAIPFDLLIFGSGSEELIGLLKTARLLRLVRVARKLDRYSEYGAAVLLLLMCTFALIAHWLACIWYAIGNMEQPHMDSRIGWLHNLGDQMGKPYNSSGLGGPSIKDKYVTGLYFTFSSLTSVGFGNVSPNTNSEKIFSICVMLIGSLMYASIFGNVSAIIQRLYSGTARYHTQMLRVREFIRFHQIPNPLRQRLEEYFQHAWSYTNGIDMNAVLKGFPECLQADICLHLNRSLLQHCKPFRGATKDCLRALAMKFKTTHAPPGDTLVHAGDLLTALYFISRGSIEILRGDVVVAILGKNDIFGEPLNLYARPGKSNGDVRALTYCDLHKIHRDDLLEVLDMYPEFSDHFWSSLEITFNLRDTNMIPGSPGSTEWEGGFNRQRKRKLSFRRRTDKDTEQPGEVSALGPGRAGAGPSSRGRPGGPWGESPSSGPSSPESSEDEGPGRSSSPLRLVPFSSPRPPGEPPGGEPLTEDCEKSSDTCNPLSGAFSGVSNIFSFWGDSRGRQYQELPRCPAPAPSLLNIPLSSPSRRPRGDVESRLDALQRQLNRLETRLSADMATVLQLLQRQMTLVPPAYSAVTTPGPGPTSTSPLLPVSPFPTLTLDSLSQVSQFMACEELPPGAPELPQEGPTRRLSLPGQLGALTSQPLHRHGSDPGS", "details": "superfusion with 1–2.5 μmol/L (Liu et al. 1998); cited from earlier work"}, "[1]": {"tested_on": "cultured neonatal rat cardiomyocytes", "experiment": "Spontaneous beating rate of cultured neonatal rat cardiomyocytes", "type": "cell-based", "design": "Reduction in beating rate / Maximum inhibition of beating activity, drug alone: dose or concentration left out as unconfirmed", "description": "Delayed rectifier potassium channels are important components of cardiac repolarization. There are two major delayed rectifier potassium currents, IKr (rapid component) and IKs (slow component). Drugs that block these currents, particularly IKr, slow cardiac repolarization and increase the risk of developing potentially fatal cardiac arrhythmias such as Torsades de Pointes. Moreover, mutations in the genes encoding for delayed rectifier potassium channel proteins have been linked to long QT syndrome, a condition seen in patients at high risk for developing Torsades de Pointes cardiac arrhythmias and sudden death. […] Recently, however, a new compound, chromanol 293B, has been reported to be a relatively selective blocker of IKs (Busch et al., Pflug. Arch. 432: 1094–6 (1996)). In the present report, we have tested this compound using spontaneously beating cultures of neonatal rat cardiomyocytes.\nIn addition to the different electrophysiological properties of IKr versus IKs that have been described by others, these currents can be distinguished pharmacologically (Sanguinetti et al., J. Gen. Physiol. 96: 195–215 (1990)). […] To determine if pharmacological blockade of delayed rectifier potassium currents influences the spontaneous beating rate of cultured neonatal rat cardiomyocytes, a dose-response curve was generated for chromanol 293B."}, "Ito": {"tested_on": "Ito", "experiment": "Whole-cell voltage clamp of transient outward current Ito in rabbit ventricular myocytes", "type": "cell-based", "details": "5 μmol/L, 5 minutes superfusion"}, "IK1": {"tested_on": "IK1", "experiment": "Whole-cell voltage clamp of inward rectifier IK1 in rabbit ventricular myocytes", "type": "cell-based", "details": "5 μmol/L, 5 minutes"}, "[2]": {"details": "cited from earlier work"}, "CYP2D6": {"target": "CYP2D6 (Homo sapiens, UniProt P10635)", "sequence (P10635 whole entry)": "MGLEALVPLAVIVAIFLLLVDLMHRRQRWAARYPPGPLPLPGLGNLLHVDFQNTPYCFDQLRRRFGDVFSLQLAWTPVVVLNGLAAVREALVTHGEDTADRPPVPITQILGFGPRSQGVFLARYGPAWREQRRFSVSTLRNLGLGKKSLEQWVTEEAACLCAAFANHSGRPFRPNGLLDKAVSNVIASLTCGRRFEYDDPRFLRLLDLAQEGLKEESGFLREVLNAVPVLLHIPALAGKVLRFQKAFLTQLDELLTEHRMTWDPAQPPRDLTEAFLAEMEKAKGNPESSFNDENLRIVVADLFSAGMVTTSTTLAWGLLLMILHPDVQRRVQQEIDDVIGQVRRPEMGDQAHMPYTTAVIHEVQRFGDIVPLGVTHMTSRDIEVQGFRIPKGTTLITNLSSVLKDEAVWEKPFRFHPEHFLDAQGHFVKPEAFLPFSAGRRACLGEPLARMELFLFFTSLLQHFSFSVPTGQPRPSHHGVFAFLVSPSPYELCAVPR", "details": "Table 3, cited from earlier work"}, "CYP2C19": {"target": "CYP2C19 (Homo sapiens, UniProt P33261)", "sequence (P33261 whole entry)": "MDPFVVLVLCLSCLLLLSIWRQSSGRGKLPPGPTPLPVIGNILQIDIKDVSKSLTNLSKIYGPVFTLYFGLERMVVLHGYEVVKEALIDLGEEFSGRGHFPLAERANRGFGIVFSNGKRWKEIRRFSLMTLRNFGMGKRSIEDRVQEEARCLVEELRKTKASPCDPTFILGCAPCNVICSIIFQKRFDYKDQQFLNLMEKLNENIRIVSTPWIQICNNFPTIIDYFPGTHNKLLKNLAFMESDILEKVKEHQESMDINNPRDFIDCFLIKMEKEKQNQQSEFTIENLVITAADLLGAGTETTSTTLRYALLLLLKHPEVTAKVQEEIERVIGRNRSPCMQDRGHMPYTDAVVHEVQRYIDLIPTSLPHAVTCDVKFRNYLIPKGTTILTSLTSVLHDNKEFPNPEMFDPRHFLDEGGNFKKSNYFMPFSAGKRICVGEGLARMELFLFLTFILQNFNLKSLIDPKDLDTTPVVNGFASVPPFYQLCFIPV", "details": "Table 3; cited from earlier work"}, "[3]": {"details": "cited from earlier work", "remark": "listed apart in the source"}, "CYP2C9": {"target": "CYP2C9 (Homo sapiens, UniProt P11712)", "sequence (P11712 whole entry)": "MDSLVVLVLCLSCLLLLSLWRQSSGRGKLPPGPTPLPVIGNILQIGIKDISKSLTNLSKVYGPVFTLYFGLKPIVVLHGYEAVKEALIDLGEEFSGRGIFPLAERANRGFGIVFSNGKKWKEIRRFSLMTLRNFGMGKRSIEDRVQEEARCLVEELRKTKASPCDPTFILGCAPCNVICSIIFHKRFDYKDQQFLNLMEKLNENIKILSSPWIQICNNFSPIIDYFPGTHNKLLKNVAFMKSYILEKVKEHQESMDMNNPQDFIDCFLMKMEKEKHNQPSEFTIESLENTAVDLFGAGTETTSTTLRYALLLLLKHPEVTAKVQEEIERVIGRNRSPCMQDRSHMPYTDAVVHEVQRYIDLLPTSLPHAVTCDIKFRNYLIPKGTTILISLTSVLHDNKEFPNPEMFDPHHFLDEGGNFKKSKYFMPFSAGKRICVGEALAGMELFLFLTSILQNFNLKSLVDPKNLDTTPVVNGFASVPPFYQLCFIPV", "details": "Table 3; cited from earlier work"}, "CYP1A2": {"target": "T2, CYP1A2 (Homo sapiens, UniProt P05177)", "T2 sequence (P05177 1-516)": "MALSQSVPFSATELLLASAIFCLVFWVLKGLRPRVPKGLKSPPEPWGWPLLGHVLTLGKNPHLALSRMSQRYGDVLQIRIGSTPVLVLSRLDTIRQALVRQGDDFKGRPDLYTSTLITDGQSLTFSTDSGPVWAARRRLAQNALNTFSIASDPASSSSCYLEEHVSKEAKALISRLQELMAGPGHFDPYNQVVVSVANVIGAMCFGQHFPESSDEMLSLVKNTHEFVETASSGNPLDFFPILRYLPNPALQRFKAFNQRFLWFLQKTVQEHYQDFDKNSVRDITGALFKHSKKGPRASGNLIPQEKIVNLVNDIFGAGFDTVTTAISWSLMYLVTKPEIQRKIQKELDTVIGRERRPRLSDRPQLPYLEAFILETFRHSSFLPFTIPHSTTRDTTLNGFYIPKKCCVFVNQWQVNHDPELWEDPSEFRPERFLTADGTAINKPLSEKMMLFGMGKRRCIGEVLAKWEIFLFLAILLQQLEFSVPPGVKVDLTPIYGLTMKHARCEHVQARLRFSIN", "details": "Table 3; cited from earlier work"}, "CYP3A": {"tested_on": "CYP3A", "details": "Table 3; cited from earlier work"}, "P-gp": {"target": "P-gp (Homo sapiens, UniProt P08183)", "details": "Atadja et al. 1998; cited from earlier work"}, "[4]": {"tested_on": "rabbit ventricular myocytes", "details": "3.3 μmol/L, about 4–5 min; before drug 341±49 ms; n=16, p>0.05"}, "L-type ICa": {"target": "L-type ICa (Oryctolagus cuniculus, UniProt P15381)", "sequence (P15381 whole entry, other chains not shown)": "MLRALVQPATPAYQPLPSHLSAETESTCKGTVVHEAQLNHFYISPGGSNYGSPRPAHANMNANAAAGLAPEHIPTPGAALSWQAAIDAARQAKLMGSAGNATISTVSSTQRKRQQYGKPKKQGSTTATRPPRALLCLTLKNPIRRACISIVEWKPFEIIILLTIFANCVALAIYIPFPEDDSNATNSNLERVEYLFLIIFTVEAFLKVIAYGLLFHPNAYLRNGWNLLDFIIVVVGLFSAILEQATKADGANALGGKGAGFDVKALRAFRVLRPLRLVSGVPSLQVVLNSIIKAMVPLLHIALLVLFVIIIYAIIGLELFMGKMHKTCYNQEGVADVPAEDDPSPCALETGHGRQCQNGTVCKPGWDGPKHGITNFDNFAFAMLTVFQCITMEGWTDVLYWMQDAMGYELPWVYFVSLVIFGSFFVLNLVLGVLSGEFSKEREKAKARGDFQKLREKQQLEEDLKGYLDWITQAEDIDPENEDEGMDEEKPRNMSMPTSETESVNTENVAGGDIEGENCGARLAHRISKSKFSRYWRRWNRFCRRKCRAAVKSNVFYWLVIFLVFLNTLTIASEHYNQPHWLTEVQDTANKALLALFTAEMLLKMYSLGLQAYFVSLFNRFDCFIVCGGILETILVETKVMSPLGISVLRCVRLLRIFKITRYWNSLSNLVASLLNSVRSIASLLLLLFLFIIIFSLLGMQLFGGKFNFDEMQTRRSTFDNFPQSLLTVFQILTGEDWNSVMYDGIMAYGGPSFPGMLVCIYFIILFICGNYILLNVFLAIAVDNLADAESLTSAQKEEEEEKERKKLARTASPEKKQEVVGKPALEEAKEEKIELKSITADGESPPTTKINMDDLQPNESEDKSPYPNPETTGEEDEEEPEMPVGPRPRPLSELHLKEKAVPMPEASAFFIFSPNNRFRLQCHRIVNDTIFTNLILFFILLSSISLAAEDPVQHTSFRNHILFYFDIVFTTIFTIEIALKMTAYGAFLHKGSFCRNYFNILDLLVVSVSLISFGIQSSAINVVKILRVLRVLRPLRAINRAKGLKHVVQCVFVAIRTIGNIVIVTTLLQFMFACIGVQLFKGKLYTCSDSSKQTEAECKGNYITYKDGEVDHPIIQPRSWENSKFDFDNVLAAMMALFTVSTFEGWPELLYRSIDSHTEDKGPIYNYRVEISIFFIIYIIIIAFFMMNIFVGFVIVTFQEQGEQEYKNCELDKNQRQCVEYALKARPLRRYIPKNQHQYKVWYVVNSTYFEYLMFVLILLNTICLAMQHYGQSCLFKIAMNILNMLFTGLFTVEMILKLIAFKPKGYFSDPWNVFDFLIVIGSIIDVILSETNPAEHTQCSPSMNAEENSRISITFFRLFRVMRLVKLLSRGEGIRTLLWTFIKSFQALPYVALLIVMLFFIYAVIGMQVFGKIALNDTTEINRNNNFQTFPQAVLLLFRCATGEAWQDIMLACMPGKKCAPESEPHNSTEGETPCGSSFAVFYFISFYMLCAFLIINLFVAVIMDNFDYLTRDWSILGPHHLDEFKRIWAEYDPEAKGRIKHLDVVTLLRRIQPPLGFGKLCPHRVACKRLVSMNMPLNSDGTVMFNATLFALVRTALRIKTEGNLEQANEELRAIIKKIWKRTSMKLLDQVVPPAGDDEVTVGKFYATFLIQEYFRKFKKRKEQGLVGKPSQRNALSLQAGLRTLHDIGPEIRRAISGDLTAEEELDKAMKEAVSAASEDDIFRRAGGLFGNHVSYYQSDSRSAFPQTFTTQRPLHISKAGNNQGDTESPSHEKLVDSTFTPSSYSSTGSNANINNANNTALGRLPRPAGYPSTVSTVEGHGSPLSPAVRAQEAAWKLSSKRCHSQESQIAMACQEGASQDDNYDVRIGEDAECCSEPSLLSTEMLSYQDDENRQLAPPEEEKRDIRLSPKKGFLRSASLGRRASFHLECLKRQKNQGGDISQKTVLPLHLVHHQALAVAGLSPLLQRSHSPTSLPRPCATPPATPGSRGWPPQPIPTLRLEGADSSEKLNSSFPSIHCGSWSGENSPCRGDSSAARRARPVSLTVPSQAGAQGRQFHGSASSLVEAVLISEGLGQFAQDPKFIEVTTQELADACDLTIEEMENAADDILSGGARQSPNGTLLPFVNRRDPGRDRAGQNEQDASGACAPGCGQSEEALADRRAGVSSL", "sequence (P13806 27-1106 partner, other chains not shown)": "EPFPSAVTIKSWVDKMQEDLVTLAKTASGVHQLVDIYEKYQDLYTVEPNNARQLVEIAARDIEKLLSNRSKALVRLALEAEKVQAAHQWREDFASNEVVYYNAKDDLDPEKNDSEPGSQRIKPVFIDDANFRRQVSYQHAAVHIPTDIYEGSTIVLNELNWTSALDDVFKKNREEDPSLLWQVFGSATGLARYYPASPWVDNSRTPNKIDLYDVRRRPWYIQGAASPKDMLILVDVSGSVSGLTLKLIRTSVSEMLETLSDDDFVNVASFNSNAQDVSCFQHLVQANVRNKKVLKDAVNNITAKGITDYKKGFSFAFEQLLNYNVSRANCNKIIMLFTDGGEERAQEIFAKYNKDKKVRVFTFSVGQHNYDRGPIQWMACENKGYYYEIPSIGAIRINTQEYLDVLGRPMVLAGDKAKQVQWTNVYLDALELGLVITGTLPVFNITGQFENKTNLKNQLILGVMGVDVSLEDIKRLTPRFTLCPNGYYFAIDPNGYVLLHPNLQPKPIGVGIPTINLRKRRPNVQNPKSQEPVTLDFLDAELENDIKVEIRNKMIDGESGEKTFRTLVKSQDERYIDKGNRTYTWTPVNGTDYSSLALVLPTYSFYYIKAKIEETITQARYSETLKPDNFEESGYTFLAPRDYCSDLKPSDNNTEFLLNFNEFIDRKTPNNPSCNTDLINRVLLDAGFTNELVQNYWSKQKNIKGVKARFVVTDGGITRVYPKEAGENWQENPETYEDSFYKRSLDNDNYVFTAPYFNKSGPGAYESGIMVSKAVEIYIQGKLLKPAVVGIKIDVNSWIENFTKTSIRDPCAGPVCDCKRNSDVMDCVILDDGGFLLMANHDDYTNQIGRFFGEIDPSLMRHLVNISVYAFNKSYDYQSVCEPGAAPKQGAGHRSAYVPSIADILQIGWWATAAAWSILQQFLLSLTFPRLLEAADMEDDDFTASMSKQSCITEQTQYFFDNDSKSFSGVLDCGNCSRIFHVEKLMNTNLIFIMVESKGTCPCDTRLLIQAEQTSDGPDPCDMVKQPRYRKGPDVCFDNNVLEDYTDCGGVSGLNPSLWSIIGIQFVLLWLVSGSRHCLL", "details": "10 μmol/L"}, "IKs": {"tested_on": "IKs", "details": "cited from earlier work"}},
  "note": "Entries after “also recorded” stand apart in the source; their conditions may differ. Read-outs that look alike come from different tables or passages of the source.",
  "data": [
    {"compound": "CN(CCOc1ccc(NS(C)(=O)=O)cc1)CCc1ccc(NS(C)(=O)=O)cc1", "note": "[dofetilide]", "values": [
      {"measurement": "Effect on IKr tail current", "setting": "IKr", "value": "abolished"}
    ]},
    {"compound": "Cc1cccc(CCN2CCC(C(=O)c3ccc(NS(C)(=O)=O)cc3)CC2)n1", "note": "[E-4031]", "values": [
      {"measurement": "Maximum inhibition of beating activity, drug alone", "setting": "[1]; 5–10 mnM E-4031 alone", "value": 50, "unit": "%"},
      {"measurement": "Effect on transient outward current (Ito)", "setting": "Ito", "value": "no effect; also recorded: without affecting"},
      {"measurement": "Effect on IK1 outward (holding) current", "setting": "IK1; at −40 mV", "value": "without affecting; also recorded: no effect"},
      {"measurement": "Effect on IK1 inward current", "setting": "IK1; recorded at −120 mV", "value": "little effect"}
    ]},
    {"compound": "CN(C)CCC=C1c2ccccc2CCc2ccccc21", "note": "[Amitriptyline]", "values": [
      {"measurement": "QT", "setting": "[2]; Table 2, drug labeling", "value": "Yes"},
      {"measurement": "QT", "setting": "[2]; Table 3", "value": "Yes"},
      {"measurement": "Interactions: cytochrome P-450 isoform 2D6, substrate or inhibitor", "setting": "CYP2D6", "value": "Substrate"},
      {"measurement": "Interactions: cytochrome P-450 isoform 2C19, substrate or inhibitor", "setting": "CYP2C19", "value": "Substrate"},
      {"measurement": "TdP", "setting": "[3]; Table 2, FDA / medical literature", "value": "Yes"},
      {"measurement": "TdP", "setting": "[3]; Table 3", "value": "Yes"},
      {"measurement": "Interactions: cytochrome P-450 isoform 2C9, substrate or inhibitor", "setting": "CYP2C9", "value": "Substrate"},
      {"measurement": "Interactions: cytochrome P-450 isoform 1A2, substrate or inhibitor", "setting": "CYP1A2", "value": "Substrate"}
    ]},
    {"compound": "O=C(CCCN1CCC(O)(c2ccc(Cl)cc2)CC1)c1ccc(F)cc1", "note": "[Haloperidol]", "values": [
      {"measurement": "Interactions: cytochrome P-450 isoform 2D6, substrate or inhibitor", "setting": "CYP2D6; CYP2D6 inhibitor", "value": "Inhibitor"},
      {"measurement": "Interactions: cytochrome P-450 isoform 2D6, substrate or inhibitor", "setting": "CYP2D6; CYP2D6 substrate", "value": "Substrate"},
      {"measurement": "Interactions: cytochrome P-450 isoform 3A, substrate or inhibitor", "setting": "CYP3A", "value": "Substrate"},
      {"measurement": "Interactions: cytochrome P-450 isoform 1A2, substrate or inhibitor", "setting": "CYP1A2", "value": "Substrate"}
    ]},
    {"compound": "C/C=C/C[C@@H](C)C(=O)[C@H]1C(=O)N[C@@H](C(C)C)C(=O)N(C)CC(=O)N(C)[C@@H](CC(C)C)C(=O)N[C@@H](C(C)C)C(=O)N(C)[C@@H](CC(C)C)C(=O)N[C@@H](C)C(=O)N[C@H](C)C(=O)N(C)[C@@H](CC(C)C)C(=O)N(C)[C@@H](CC(C)C)C(=O)N(C)[C@@H](C(C)C)C(=O)N1C", "note": "[PSC-833]", "values": [
      {"measurement": "Effect on P-gp", "setting": "P-gp", "value": "potently and specifically inhibits"}
    ]},
    {"compound": "CC/C(=C(\\c1ccccc1)c1ccc(OCCN(C)C)cc1)c1ccccc1", "note": "[Tamoxifen]", "values": [
      {"measurement": "APD measured at 90% repolarization (APD90) after superfusion", "setting": "[4]", "value": "332 ± 19", "unit": "ms"},
      {"measurement": "Inhibition of ICa", "setting": "L-type ICa", "value": "almost complete inhibition; also recorded: marked inhibition"}
    ]},
    {"compound": "CCS(=O)(=O)N(C)[C@H]1c2cc(C#N)ccc2OC(C)(C)[C@@H]1O", "note": "(racemic) [chromanol 293B]", "values": [
      {"measurement": "Concentrations up to which IKs is selectively blocked", "setting": "IKs; Busch et al. 1996", "value": "10 to 30", "unit": "µM"},
      {"measurement": "Concentration required to achieve complete blockade of IKs", "setting": "IKs; guinea pig ventricular myocytes (Busch et al. 1996)", "value": 100, "unit": "µM"},
      {"measurement": "Maximum inhibition of beating activity, drug alone", "setting": "[1]; 293B alone", "value": 50, "unit": "%"},
      {"measurement": "Effect on spontaneous beating rate", "setting": "[1]; dose-response curve", "value": "dose-dependent decrease in beating rate"},
      {"measurement": "Reduction in beating rate", "setting": "[1]; highest drug concentration tested, relative to control", "value": "about 50%"}
    ]},
    {"compound": "CN(C)CCCN1c2ccccc2CCc2ccc(Cl)cc21", "note": "[Clomipramine]", "values": [
      {"measurement": "Interactions: cytochrome P-450 isoform 2C19, substrate or inhibitor", "setting": "CYP2C19", "value": "Substrate"},
      {"measurement": "Interactions: cytochrome P-450 isoform 1A2, substrate or inhibitor", "setting": "CYP1A2", "value": "Substrate"}
    ]}
  ]
}
